We go through one molecule from US8999983B2, “Modulators of Hec1 activity and methods therefor” (Taivex Therapeutics Corporation, priority 2011, dated 2015).

The structures appear in SMILES notation.

One data set deals with Caco-2 cell monolayers. Briefly: Caco-2 cell permeability. The class given is in vitro ADME. The note with it: 2 hour. The protocol:
Here, Caco-2 cell line (cat. HTB-37TM) was purchased from the ATCC. Cells were cultivated in T-75 flasks in a cell culture incubator set at 37° C., 5% CO2, 95% relative humidity. Cells were allowed to grow to reach 80-90% confluence before seeding. […] The cells were grown in culture medium consisting of Dulbecco's modified Eagle's medium supplemented with 10% fetal bovine serum, 100 U/mL penicillin and 100 μg/mL streptomycin. The culture medium was replaced every 2 days and the cells were maintained at 37° C., 95% relative humidity and 5% CO2.
For a quality integrity control of the monolayers of seeded cells, the Lucifer yellow (LY) transport experiment was performed to evaluate monolayer integrity. As for a quality control of each filter, the transepithelial electrical resistance (TEER) was measured before the start of and at the end of transport experiments. Physiologically and morphologically well developed Caco-2 cell monolayers with TEER values greater than 400 Ωcm^2 were used for the studies.
The solution volumes in apical and basolateral chambers were set to 0.4 and 0.6 ml respectively. Samples were taken from both the apical and basolateral compartment at the end of the 2 hour incubation at 37° C. […] The excitation and emission wavelengths were 490 nm and 530 nm, respectively.

For a further data set, the system named is MDA-MB-468. Briefly: Antiproliferation assay (MTS), MDA-MB-468 cells. In kind it is cell-based. The settings on record: Homo sapiens, MDA-MB-468, 96 h, Table 1, read-out: Antiproliferative IC50 MDA-MB-468. The essentials:
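Cells seeded after overnight attachment were treated in triplicate for 96 h at 37 °C, 5% CO2, final DMSO below 1%. Viability read by MTS absorbance; concentration-response curves fitted by linear regression against DMSO controls.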

A further data set concerns HeLa cell. Description: Immunostaining and microscopy, metaphase chromosomal misalignment. The class given is cell-based. The settings on record: compared to control (DMSO).
The subject of the next data set is Nek2 protein. Description: Immunoblot of Nek2 protein level in K562 cells. The note with it: 1 μM, up to 24 hrs. In kind it is cell-based. The protocol:
Immunoblot Analysis: For immunoblotting experiments, cells were plated in a 6-well culture plate and cultured overnight. Cells were incubated with the test compounds for the indicated time and whole cell lysate was harvested by adding 1×SDS-PAGE Sample Buffer (62.5 mM Tris-HCl (pH 6.8 at 25° C.), 2% w/v SDS, 10% glycerol, 50 mM DTT, and 0.01% w/v bromophenol blue or phenol red). Proteins were separated by SDS-PAGE electrophoresis and transferred to PVDF membrane. Protein expression was immunoblotted using various primary antibodies and detected using Immobilon Western Chemiluminescent HRP Substrate (Millipore, Billerica Mass. 01821 USA). Antibodies used include anti-Cleaved Caspase3, (Rabbit, Cell Signaling Technology, Danvers Mass. 01923 USA); anti-PARP (Rabbit, Cell Signaling Technology, Danvers Mass. 01923 USA); anti-MCL-1 (mouse, BD Biosciences, San Jose Calif. 95131 USA); anti-XIAP (rabbit, Cell Signaling Technology, Danvers Mass. 01923 USA); anti-Bcl-2 (mouse, Santa Cruz Biotechnology, Santa Cruz Calif. 95060); anti-Cyclin BI (mouse, BD Biosciences, San Jose Calif. 95131 USA); anti-Cyclin D1 (mouse, Santa Cruz Biotechnology, Santa Cruz Calif. 95060); Anti-Nek2 (mouse, BD Biosciences, San Jose Calif. 95131 USA); Anti-HEC1, (rabbit, GeneTex, Inc., Irvine Calif. 92606 USA); and anti-actin (mouse, Millipore, Billerica Mass. 01821 USA). […]

Broadly, the IC50 is the midpoint of a concentration-inhibition curve.

Protocol for HeLa cell: Immunostaining and Microscopy: Cells were grown on polylysine-coated coverslips. Cells were gently washed with BRB80 buffer (80 mM piperazine-N,N′-bis(2-ethanesulfonic acid) (PIPES) pH 6.8, 5 mM EGTA, 1 mM MgCl2) before fixation with cold 100% methanol or 4% paraformaldehyde in BRB80 or phosphate-buffered saline (PBS). Following permeabilization with 0.4% Triton X-100, cells were blocked with 2% bovine serum albumin (BSA) in PBS and then incubated with anti-α-Tubulin antibodies (mouse, FITC Conjugate; Sigma Aldrich, St. Louis Mo. USA) diluted in 2% BSA in PBS. DAPI (4′,6′-diamidino-2-phenylindole) staining was applied after secondary antibody incubation, and cells were mounted on cover slides with Prolong gold antifade reagent (Life Technologies, Carlsbad Calif. USA 92008). Images were captured with a Zeiss Axioplan 2 microscope equipped with a deconvolution module or with a Zeiss LSM-510 META laser scanning confocal microscope (Carl Zeiss Microscopy, Thomwood N.Y. 10594 USA).
After fixation, cells are stained with anti-tubulin antibody and DAPI to stain for microtubules and DNA, respectively, and imaged. […] Fluorescent images were taken of the cells and the percentage of cells with metaphase misalignment were counted and recorded.

As for `COCCOc1cnc(Sc2cc(C)c(-c3csc(NC(=O)c4ccncc4)n3)c(C)c2)cn1` [Compound 27, N-(4-{4-(5-(2-methoxyethoxy)pyrazin-2-ylthio)-2,6-dimethylphenyl}thiazol-2-yl)isonicotinamide], in the data set on Caco-2 cell monolayers (10 μM, both directions), the Caco-2 permeability result is “moderate Caco-2 permeability”. In addition, the active efflux result in the data set on Caco-2 cell monolayers (Caco-2, 10 μM) is “no indication of significant active efflux”. Also, the IC50 with MDA-MB-468 amounted to 0.0191 µM. Further, in the data set on HeLa cell, the “number of cells with metaphase misalignment” value was “time-dependent increase in the number of cells with metaphase misalignment”. In the data set on Nek2 protein, the Nek2 protein level result was “induced a reduction of Nek2 protein levels”.
